Data published in US20250051347A1, “BIFUNCTIONAL CHIMERIC HETEROCYCLIC COMPOUND AND USE THEREOF AS ANDROGEN RECEPTOR DEGRADER” (Hinova Pharmaceuticals, Inc., priority 2021, published 2025).

molecular target: T1, androgen receptor (AR) splicing variant AR-v7 (Homo sapiens, UniProt P10275); test: Degradation activity on androgen receptor splicing variant AR-v7 in 22RV1 cells (ELISA); format: cell-based; settings: AR-v7 degradation in 22RV1 cells, 48 h, class symbols
T1 construct: The degradation activity of compounds on AR-v7 in 22RV1 cells; host or cells: 22RV1 cells
T1 sequence (P10275 1-644 isoform P10275-3): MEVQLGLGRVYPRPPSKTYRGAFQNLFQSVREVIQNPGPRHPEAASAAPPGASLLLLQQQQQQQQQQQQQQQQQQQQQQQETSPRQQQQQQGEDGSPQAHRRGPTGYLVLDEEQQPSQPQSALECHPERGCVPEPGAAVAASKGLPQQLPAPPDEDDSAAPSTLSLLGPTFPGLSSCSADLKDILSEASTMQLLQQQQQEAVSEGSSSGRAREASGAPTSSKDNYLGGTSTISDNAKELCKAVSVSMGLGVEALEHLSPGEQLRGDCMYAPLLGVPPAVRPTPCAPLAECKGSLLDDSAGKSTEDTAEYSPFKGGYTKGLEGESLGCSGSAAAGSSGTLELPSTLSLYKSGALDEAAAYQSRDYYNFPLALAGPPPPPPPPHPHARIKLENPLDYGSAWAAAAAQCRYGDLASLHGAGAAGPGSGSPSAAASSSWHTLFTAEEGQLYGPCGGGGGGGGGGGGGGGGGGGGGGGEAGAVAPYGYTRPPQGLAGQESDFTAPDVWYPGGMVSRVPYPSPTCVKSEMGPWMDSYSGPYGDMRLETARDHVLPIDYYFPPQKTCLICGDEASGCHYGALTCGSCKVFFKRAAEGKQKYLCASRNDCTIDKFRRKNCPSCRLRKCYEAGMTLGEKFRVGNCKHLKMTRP

`CC(C)(c1ccc(OCCCNc2ccc3c(c2)C(=O)N(C2CCC(=O)NC2=O)C3=O)cc1)c1ccc(OCc2ccnc(N3CCCC3)n2)cc1` (stereo not drawn) [Example 440, 2-(2,6-dioxopiperidin-3-yl)-5-((3-(4-(2-(4-((2-(pyrrolidin-1-yl)pyrimidin-4-yl)methoxy)phenyl)propan-2-yl)phenoxy)propyl)amino)isoindolin-1,3-dione] and `CC(C)(c1ccc(OCCCNc2ccc3c(c2)C(=O)N(C2CCC(=O)NC2=O)C3=O)cc1)c1ccc(OCc2nc3ncccc3o2)cc1` (stereo not drawn) [Example 442, 2-(2,6-dioxopiperidin-3-yl)-5-((3-(4-(2-(4-(oxazolo[4,5-b]pyridin-2-ylmethoxy)phenyl)propan-2-yl)phenoxy)propyl)amino)isoindolin-1,3-dione] fall in the same range of DC50: 11 to 100 nM for the first, 11 to 100 nM for the second.

`CC(C)(c1ccc(OCCCNc2ccc3c(c2)C(=O)N(C2CCC(=O)NC2=O)C3=O)cc1)c1ccc(OCc2nc(C(N)=O)cs2)cc1` (stereo not drawn) [Example 441, 2-((4-(2-(4-(3-((2-(2,6-dioxopiperidin-3-yl)-1,3-dioxoisoindolin-5-yl)amino)propoxy)phenyl)propan-2-yl)phenoxy)methyl) thiazol-4-carbonylamine] and `CC(C)(c1ccc(OCCCNc2cccc3c2C(=O)N(C2CCC(=O)NC2=O)C3=O)cc1)c1ccc(OCc2nc3ncccc3o2)cc1` (stereo not drawn) [Example 443, 2-(2,6-dioxopiperidin-3-yl)-4-((3-(4-(2-(4-(oxazolo[4,5-b]pyridin-2-ylmethoxy)phenyl)propan-2-yl)phenoxy)propyl)amino)isoindolin-1,3-dione] fall in the same range of DC50: 11 to 100 nM for the first, 11 to 100 nM for the second.

`CC1(CNc2nccc(COc3ccc(C(C)(C)c4ccc(O[C@H]5C[C@@H](Nc6ccc7c(c6)C(=O)N(C6CCC(=O)NC6=O)C7=O)C5)cc4)cc3)n2)CNC1` (stereo partly drawn) [Example 457] and `CC1(C)CN(c2nccc(COc3ccc(C(C)(C)c4ccc(O[C@H]5C[C@@H](Nc6ccc7c(c6)C(=O)N(C6CCC(=O)NC6=O)C7=O)C5)cc4)cc3)n2)CCN1` (stereo partly drawn) [Example 458, 5-(((1s,3s)-3-(4-(2-(4-((2-(3,3-dimethylpiperazin-1-yl)pyrimidin-4-yl)methoxy)phenyl)propan-2-yl)phenoxy)cyclobutyl)amino)-2-(2,6-dioxopiperidin-3-yl)isoindolin-1,3-dione] fall in the same range of DC50: 11 to 100 nM for the first, 11 to 100 nM for the second.

`CC(C)(c1ccc(Oc2ccnc(N3CC4(COC4)C3)n2)cc1)c1ccc(O[C@H]2C[C@@H](Nc3ccc4c(c3)C(=O)N(C3CCC(=O)NC3=O)C4=O)C2)cc1` (stereo partly drawn) [Example 459] and `CC(C)(c1ccc(Oc2ccnc(-n3nccn3)n2)cc1)c1ccc(O[C@H]2C[C@H](Nc3ccc4c(c3)C(=O)N(C3CCC(=O)NC3=O)C4=O)C2)cc1` (stereo partly drawn) [Example 469, 5-(((1r,3r)-3-(4-(2-(4-((2-(2H-1,2,3-triazol-2-yl)pyrimidin-4-yl)oxy)phenyl)propan-2-yl)phenoxy)cyclobutyl)amino)-2-(2,6-dioxopiperidin-3-yl)isoindolin-1,3-dione] fall in the same range of DC50: 11 to 100 nM for the first, 11 to 100 nM for the second.

First: Cn1nc(C(F)(F)F)cc1-c1nccc(COc2ccc(C(C)(C)c3ccc(O[C@H]4C[C@@H](Nc5ccc6c(c5)C(=O)N(C5CCC(=O)NC5=O)C6=O)C4)cc3)cc2)n1 (stereo partly drawn) [Example 462]
Second: CCN1CC(Oc2nccc(COc3ccc(C(C)(C)c4ccc(O[C@H]5C[C@@H](Nc6ccc7c(c6)C(=O)N(C6CCC(=O)NC6=O)C7=O)C5)cc4)cc3)n2)C1 (stereo partly drawn) [Example 466]
The DC50 of the first is higher: 101 to 1000 nM for the first, 11 to 100 nM for the second.

`CC(C)(c1ccc(OCc2ccnc(OC3CN(C4CC4)C3)n2)cc1)c1ccc(O[C@H]2C[C@@H](Nc3ccc4c(c3)C(=O)N(C3CCC(=O)NC3=O)C4=O)C2)cc1` (stereo partly drawn) [Example 467, 5-(((1s,3s)-3-(4-(2-(4-((2-((1-cyclopropylazetidin-3-yl)oxy)pyrimidin-4-yl)methoxy)phenyl)propan-2-yl)phenoxy)cyclobutyl)amino)-2-(2,6-dioxopiperidin-3-yl)isoindolin-1,3-dione] and `Cc1noc(-c2cccc(COc3ccc(C(C)(C)c4ccc(O[C@H]5C[C@@H](Nc6ccc7c(c6)C(=O)N(C6CCC(=O)NC6=O)C7=O)C5)cc4)cc3)n2)n1` (stereo partly drawn) [Example 472] fall in the same range of DC50: 11 to 100 nM for the first, 11 to 100 nM for the second.
